Assay results: US4315928A, “N-Aminosulfenyl carbamate compounds, compositions and use” (priority 1975, dated 1982)

Experiments:
corn = test: Phytotoxicity Test, corn; format: in vivo; design: key: A rating of 1 indicates no perceptible injury; ratings of 2, 3 and 4 indicate intermediate degrees of injury; ratings of 2, 3 and 4 indicate intermediate degrees of injury; ratings of 2, 3 and 4 indicate intermediate degrees of injury; 5 indicates the plant was dead; settings: ten days
Description: (§1) Suspensions of the test compounds were prepared by dissolving one gram of compound in 50 milliliters of acetone in which had been dissolved 0.1 gram (10 percent of the weight of compound) of an alkylphenoxy polyethoxyethanol surfactant, as an emulsifying or dispersing agent. The resulting solution was mixed into 150 milliliters of water to give roughly 200 milliliters of a suspension containing the compound in finely divided form. The thus-prepared stock suspension contained 0.5 percent by weight of compound. The test concentrations in parts per million by weight employed in the tests described hereinbelow were obtained by appropriate dilutions of the stock suspension with water. The test procedures were as follows:
(§2) Experiments were also conducted to determine the phytotoxicity of representative compositions with respect to healthy fresh plants. Solutions of the compounds were prepared as described above to provide a concentration of 2500 parts per million of the test compound. The test plants were sprayed in accordance with the procedure described above for the Mite Foliage Spray Test so as to deliver approximately 100 milliliters of test solution to the leaves of each plant tested. The sprayed plants and controls were set aside for approximately one hour to allow the solutions to dry and were then placed in the greenhouse. After ten days the plants were visually inspected to determine the extent of foliage injury. A rating of 1 indicates no perceptible injury; 5 indicates the plant was dead and ratings of 2, 3 and 4 indicate intermediate degrees of injury based upon the number and extent to which leaves were injured.

[1] = tested on: bean aphid (Aphis fabae Scop.); test: whole plant or invertebrate; settings: foliar, 24 h, read-out: Insect Toxicity, % Kill at 250 ppm, BA
[2] = tested on: southern armyworm (Prodenia eridania, (Cram.)); test: whole plant or invertebrate; settings: Spodoptera eridania, 72 h, read-out: Insect Toxicity, % Kill at 250 ppm, SAW
in vivo = settings: rat, in vivo, po
Description: (§3) These compositions were also evaluated to determine their peroral toxicity to mammals by conventional methods. The animal selected for this experiment was the rat.

rat = test: in vivo; settings: oral, statement on Table I
Description: as §3

cotton = test: Phytotoxicity Test, cotton; format: in vivo; design: key: A rating of 1 indicates no perceptible injury; ratings of 2, 3 and 4 indicate intermediate degrees of injury; ratings of 2, 3 and 4 indicate intermediate degrees of injury; ratings of 2, 3 and 4 indicate intermediate degrees of injury; 5 indicates the plant was dead; settings: ten days
Description: as §1, §2

[3] = tested on: two-spotted mite (Tetranychus urticae Koch); test: whole plant or invertebrate; settings: foliar, 144 h, read-out: Insect Toxicity, % Kill at 250 ppm, TSM
green beans = test: Phytotoxicity Test, green beans; format: in vivo; design: key: A rating of 1 indicates no perceptible injury; ratings of 2, 3 and 4 indicate intermediate degrees of injury; ratings of 2, 3 and 4 indicate intermediate degrees of injury; ratings of 2, 3 and 4 indicate intermediate degrees of injury; 5 indicates the plant was dead; settings: ten days
Description: as §1, §2

[4] = tested on: house flies (Musca domestica, L.); test: whole plant or invertebrate; settings: po, 24 h, read-out: Insect Toxicity, % Kill at 250 ppm, HF
[5] = tested on: Mexican bean beetle (Epilachna varivestis, Muls.); test: whole plant or invertebrate; settings: 72 h, read-out: Insect Toxicity, % Kill at 250 ppm, MBB
tomato = test: Phytotoxicity Test, tomato; format: in vivo; design: key: A rating of 1 indicates no perceptible injury; ratings of 2, 3 and 4 indicate intermediate degrees of injury; ratings of 2, 3 and 4 indicate intermediate degrees of injury; ratings of 2, 3 and 4 indicate intermediate degrees of injury; 5 indicates the plant was dead; settings: ten days
Description: as §1, §2

soybeans = test: Phytotoxicity Test, soybeans; format: in vivo; design: key: A rating of 1 indicates no perceptible injury; ratings of 2, 3 and 4 indicate intermediate degrees of injury; ratings of 2, 3 and 4 indicate intermediate degrees of injury; ratings of 2, 3 and 4 indicate intermediate degrees of injury; 5 indicates the plant was dead; settings: ten days
Description: as §1, §2

Compound	Crop Phytotoxicity, Injury Rating at 2500 ppm, CN (corn)	mortality at 250 ppm [1] [%]	mortality at 250 ppm [2] [%]	LD50 (in vivo) [mg/kg]	mammalian toxicity (in words) (rat)	Crop Phytotoxicity, Injury Rating at 2500 ppm, COT. (cotton)	mortality at 250 ppm [3] [%]	Crop Phytotoxicity, Injury Rating at 2500 ppm, GB (green beans)	mortality at 250 ppm [4] [%]	mortality at 250 ppm [5] [%]	Crop Phytotoxicity, Injury Rating at 2500 ppm, TOM (tomato)	Crop Phytotoxicity, Injury Rating at 2500 ppm, SOYBN. (soybeans)
CSC(C)=NOC(=O)N(C)SN1CCCCC1 [Compound 12, S-Methyl-N-[N'-Methyl-N'-(1-Piperidinosulfenyl)Carbamoyloxy]Thioacetimidate]	1	100	100	141	extremely low mammalian toxicity	1	100	1	100	100	1	1
CSC(C)=NOC(=O)N(C)SN(C)C [Compound 11, S-Methyl N-[N'-Methyl-N'-(Dimethylaminosulfenyl)carbamoyloxy]thioacetimidate]	1	100	100	141	extremely low mammalian toxicity	1	50	1	100	100	2	1
CCN(CC)SN(C)C(=O)ON=C(C)SC [Compound 17]	2	100	100	178	extremely low mammalian toxicity	2	80	2	100	100	1	2
CCSC(C)=NOC(=O)N(C)SN1CCOCC1 [Compound 4, S-Ethyl-N-[N'-Methyl-N'-(4-Morpholinosulfenyl)Carbamoyloxy]Thioacetimidate]	1	100	100	141	extremely low mammalian toxicity	1	100	1	100	100	1	2
